{"source": "ChEMBL document CHEMBL1201862", "about": "“PubChem BioAssay data set” (2004)", "key": {"[1]": {"assay": "Luminescence-based cell-based high throughput dose response assay to identify activators of the DAF-12 from the parasite S. stercoralis (ssDAF-12).", "format": "functional"}, "[2]": {"target": "T1, Oxysterols receptor LXR-beta (Homo sapiens, UniProt P55055)", "T1 sequence (P55055 whole entry)": "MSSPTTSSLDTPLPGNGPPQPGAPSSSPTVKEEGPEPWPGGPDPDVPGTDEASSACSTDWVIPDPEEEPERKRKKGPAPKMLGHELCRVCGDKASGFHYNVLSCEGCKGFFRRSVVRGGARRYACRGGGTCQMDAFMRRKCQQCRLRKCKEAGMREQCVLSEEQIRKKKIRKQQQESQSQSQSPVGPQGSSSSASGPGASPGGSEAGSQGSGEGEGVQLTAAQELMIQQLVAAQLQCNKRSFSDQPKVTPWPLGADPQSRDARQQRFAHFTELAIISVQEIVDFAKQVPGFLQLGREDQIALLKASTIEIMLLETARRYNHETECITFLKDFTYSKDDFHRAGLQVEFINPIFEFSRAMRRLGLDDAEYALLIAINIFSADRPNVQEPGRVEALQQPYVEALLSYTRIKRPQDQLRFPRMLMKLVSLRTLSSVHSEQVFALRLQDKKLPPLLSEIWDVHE", "format": "functional, cell-based"}, "[3]": {"target": "T1, Oxysterols receptor LXR-beta", "assay": "LXR agonists, Gal4 luciferase reporter, dose response, counter-screen for ssDAF-12 agonist project, cell-based, luminescence, HEK293, S. stercoralis campaign (AID 720737)", "format": "functional", "settings": "read-out: IC50 (the source's name)"}, "[4]": {"target": "Transthyretin (Homo sapiens, UniProt P02766)", "assay": "Luminescence-based cell-based high throughput dose response assay to identify activators of Transthyretin (TTR) transcription.", "format": "functional"}, "[5]": {"assay": "Luminescence Cell-Based Dose Response HTS to Identify Inhibitors of 5'UTR Stem-Loop Driven Prion Protein mRNA Translation in H4 Neuroglioblastoma Cells. [Related pubchem assays: 1827 (Project Summary), 1813 (Primary HTS)]", "format": "functional"}, "[6]": {"assay": "cells", "format": "functional, cell-based"}, "[7]": {"assay": "HEK293 cell cytotoxicity, dose response, cytotoxicity control, plate reader, cherry-picked samples (AID 743446)", "format": "functional, cell-based"}, "[8]": {"assay": "HepG2 cell cytotoxicity, dose response, cytotoxicity control, plate reader, cherry-pick, antagonist series (AID 743416)", "format": "functional, cell-based"}, "[9]": {"assay": "inhibitors of SNCA 5'UTR-driven reporter translation, confirmation, H4 neuroglioma cells, luminescence (AID 1988)", "format": "functional, cell-based"}, "[10]": {"assay": "LGR2 antagonists, dose response, cell-based, HEK293, CRE-luciferase reporter, cherry pick, set 2 (AID 743343);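 also: transfected cells were stimulated with diluted bursicon conditioned medium after compound addition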", "format": "functional"}, "[11]": {"assay": "A549 cell cytotoxicity, dose response, cytotoxicity control, plate reader, cherry-pick, antagonist series (AID 743412)", "format": "functional, cell-based"}, "[12]": {"target": "T2, Heat shock factor protein 1 (Mus musculus, UniProt P38532)", "T2 sequence (P38532 whole entry)": "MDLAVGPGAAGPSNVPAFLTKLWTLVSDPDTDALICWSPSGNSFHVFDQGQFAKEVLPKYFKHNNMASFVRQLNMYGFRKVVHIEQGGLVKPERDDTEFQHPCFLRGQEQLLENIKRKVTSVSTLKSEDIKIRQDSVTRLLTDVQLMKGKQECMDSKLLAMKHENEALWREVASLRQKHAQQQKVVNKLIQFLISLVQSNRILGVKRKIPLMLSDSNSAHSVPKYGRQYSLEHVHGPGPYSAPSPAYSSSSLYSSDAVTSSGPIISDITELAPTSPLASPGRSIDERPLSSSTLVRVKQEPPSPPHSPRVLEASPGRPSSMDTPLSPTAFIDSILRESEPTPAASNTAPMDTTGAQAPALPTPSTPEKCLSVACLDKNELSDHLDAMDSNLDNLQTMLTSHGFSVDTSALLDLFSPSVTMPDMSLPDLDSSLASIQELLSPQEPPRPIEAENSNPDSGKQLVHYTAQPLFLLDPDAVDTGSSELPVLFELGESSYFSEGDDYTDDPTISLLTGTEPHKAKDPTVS", "assay": "inhibition of MG132-induced HSE-luciferase signal, confirmation, cell-based, NIH3T3, luminescence, dose retest (AID 2382)", "format": "functional"}, "[13]": {"target": "T3, Nuclear receptor subfamily 0 group B member 1 (Homo sapiens, UniProt P51843)", "T3 sequence (P51843 whole entry)": "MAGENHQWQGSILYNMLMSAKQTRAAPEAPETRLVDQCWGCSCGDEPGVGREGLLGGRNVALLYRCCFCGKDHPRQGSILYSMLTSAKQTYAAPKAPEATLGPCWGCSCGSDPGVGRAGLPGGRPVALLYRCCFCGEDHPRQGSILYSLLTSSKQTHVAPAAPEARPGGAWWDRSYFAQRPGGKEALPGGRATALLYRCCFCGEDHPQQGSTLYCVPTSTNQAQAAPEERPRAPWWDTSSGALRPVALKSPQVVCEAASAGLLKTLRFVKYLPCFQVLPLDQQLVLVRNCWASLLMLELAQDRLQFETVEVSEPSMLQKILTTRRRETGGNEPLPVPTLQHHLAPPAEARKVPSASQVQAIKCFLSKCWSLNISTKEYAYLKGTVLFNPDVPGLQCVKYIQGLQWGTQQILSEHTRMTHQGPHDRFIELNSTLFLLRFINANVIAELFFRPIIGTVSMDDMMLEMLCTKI", "format": "functional, cell-based"}, "[14]": {"assay": "MC4R antagonists, dose response, counter-screen for LGR2 antagonist project, cell-based, plate reader, cherry pick (AID 743444);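 also: transfected HEK 293 cells stimulated with alpha-MSH peptide; potency of inhibitors of the alpha-MSH evoked signal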", "format": "functional"}, "[15]": {"assay": "inhibitors of firefly luciferase expression or activity, dose response, H4 neuroglioma cells, luminescence (AID 1990)", "format": "functional, cell-based"}, "[16]": {"system": "Vero", "assay": "host cell cytotoxicity of antiviral hits, dose response, cytotoxicity control for West Nile virus antiviral project, secondary assay (AID 1650)", "format": "functional", "settings": "Chlorocebus sabaeus"}, "[17]": {"target": "Endoplasmic reticulum aminopeptidase 1 (Homo sapiens, UniProt Q9NZ08)", "sequence (Q9NZ08 whole entry)": "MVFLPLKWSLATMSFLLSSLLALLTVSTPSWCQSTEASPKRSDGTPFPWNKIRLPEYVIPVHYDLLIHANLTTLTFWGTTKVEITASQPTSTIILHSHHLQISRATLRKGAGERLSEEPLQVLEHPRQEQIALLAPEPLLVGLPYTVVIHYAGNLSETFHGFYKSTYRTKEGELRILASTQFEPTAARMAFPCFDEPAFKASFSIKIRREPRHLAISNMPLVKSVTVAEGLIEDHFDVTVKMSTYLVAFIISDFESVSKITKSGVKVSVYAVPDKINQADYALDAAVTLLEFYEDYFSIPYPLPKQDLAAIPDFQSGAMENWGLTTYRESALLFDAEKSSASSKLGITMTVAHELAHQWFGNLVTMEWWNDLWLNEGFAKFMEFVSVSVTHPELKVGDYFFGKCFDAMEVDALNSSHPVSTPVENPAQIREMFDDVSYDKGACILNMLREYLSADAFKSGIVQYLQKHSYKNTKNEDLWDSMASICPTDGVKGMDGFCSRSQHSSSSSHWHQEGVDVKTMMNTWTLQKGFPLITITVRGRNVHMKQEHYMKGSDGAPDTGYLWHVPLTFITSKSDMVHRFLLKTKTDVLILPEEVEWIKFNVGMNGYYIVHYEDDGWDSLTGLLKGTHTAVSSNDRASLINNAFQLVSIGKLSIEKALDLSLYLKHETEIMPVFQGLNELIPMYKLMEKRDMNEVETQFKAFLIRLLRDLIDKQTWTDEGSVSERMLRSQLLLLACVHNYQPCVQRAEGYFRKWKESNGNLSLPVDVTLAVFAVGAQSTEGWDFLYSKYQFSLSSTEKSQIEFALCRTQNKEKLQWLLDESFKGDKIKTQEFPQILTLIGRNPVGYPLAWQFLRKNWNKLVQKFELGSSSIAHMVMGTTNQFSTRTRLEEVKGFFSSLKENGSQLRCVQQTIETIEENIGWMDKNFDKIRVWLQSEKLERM", "assay": "ERAP1 aminopeptidase inhibitors, dose response, biochemical, cherry-pick, set 2, plate reader (AID 743314)"}, "[18]": {"target": "T2, Heat shock factor protein 1", "assay": "HSF1 potentiators in luciferase reporter cells, confirmation, cell-based, NIH3T3, luminescence, dose retest (AID 435004);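 also: stress induced by proteasome inhibitor MG132 added 30 min after compound; actives raise luminescence as potentiators of the MG132 stress response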", "format": "functional"}, "[19]": {"target": "Heat shock protein HSP 90-alpha (Homo sapiens, UniProt P07900)", "assay": "Luminescence-based dose response biochemical high throughput screening assay for inhibitors of the Heat Shock Protein 90 (HSP90). [Related pubchem assays: 1831 (Summary AID.), 1846 (Confirmation screen.), 1789 (Primary screen.)]"}, "[20]": {"assay": "inhibitors of PGC1a acetylation in cells, dose response, cell-based, cherry-picked samples (AID 720514);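 also: potency may reflect raised or lowered acetylation signal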", "format": "functional"}, "[21]": {"assay": "inhibitors of intracellular T. cruzi replication, confirmation, NIH3T3 host cells, beta-gal luminescence (AID 2044);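 also: luminescent beta-galactosidase reporter signal from transgenic T. cruzi replicating inside host cells; inhibitors lower the luminescence signal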", "format": "functional, cell-based"}, "[22]": {"system": "BJ", "assay": "cells", "format": "functional, cell-based", "settings": "Homo sapiens"}, "[23]": {"system": "BJ", "assay": "cytotoxicity toward BJ-TERT fibroblasts, dose response, cell-based, RAS-independent, luminescence (AID 1933)", "format": "functional", "settings": "Homo sapiens"}, "[24]": {"assay": "cytotoxicity toward DRD oncogenic fibroblasts, dose response, cell-based, non-viral oncogenic, luminescence (AID 1934)", "format": "functional", "settings": "Homo sapiens"}, "[25]": {"assay": "cytotoxicity toward NIH3T3 fibroblasts, dose response, counter-screen, cell-based, ATP luminescence, mouse fibroblasts (AID 2010);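 also: cells exposed to compound for about 90 hours before reading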", "format": "functional"}, "[26]": {"target": "Estrogen receptor beta (Homo sapiens, UniProt Q92731)", "sequence (Q92731 whole entry)": "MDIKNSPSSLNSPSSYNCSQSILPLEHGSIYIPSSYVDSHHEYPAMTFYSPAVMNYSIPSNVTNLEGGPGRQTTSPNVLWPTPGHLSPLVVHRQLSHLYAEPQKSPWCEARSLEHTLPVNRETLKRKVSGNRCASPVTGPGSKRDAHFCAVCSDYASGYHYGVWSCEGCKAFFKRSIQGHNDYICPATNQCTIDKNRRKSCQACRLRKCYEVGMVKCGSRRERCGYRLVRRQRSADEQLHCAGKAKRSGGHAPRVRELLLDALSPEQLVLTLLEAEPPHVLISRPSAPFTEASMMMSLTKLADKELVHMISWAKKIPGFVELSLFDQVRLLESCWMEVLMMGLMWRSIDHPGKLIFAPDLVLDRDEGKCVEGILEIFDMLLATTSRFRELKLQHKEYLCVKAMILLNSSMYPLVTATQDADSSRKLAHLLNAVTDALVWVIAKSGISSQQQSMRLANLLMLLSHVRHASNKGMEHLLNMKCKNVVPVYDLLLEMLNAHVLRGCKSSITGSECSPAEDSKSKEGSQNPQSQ"}}, "note": "The source made the active and inactive calls."}
{"smiles": "Clc1ccc(-c2cn3cc(Cl)ccc3n2)cc1", "values": [{"measurement": "IC50", "setting": "[1]", "result": "> 67.6 µM (inactive)"}, {"measurement": "EC50", "setting": "[2]", "result": "> 67.6 µM (inactive)"}, {"measurement": "EC50", "setting": "[3]", "result": "> 67.6 µM (inactive)"}]}
{"smiles": "Cn1cc(Br)c(C(=O)N2CCc3ccccc32)n1", "values": [{"measurement": "EC50", "setting": "[4]", "result": "> 167 µM (inactive)"}]}
{"smiles": "CC(=O)c1ccc(NC(=O)c2cnn3ccccc23)cc1", "values": [{"measurement": "EC50", "setting": "[5]", "result": "1.43 µM (active)"}, {"measurement": "IC50", "setting": "[6]", "result": "> 67.5 µM (inactive)"}, {"measurement": "AC50", "setting": "[7]", "result": "> 52 µM (inactive)"}, {"measurement": "AC50", "setting": "[8]", "result": "> 52 µM (inactive)"}, {"measurement": "EC50", "setting": "[9]", "result": "1.68 µM (active)"}, {"measurement": "AC50", "setting": "[10]", "result": "9.16 µM (active)"}, {"measurement": "AC50", "setting": "[11]", "result": "50.1 µM (active)"}, {"measurement": "EC50", "setting": "[12]", "result": "14.3 µM (active)"}, {"measurement": "IC50", "setting": "[13]", "result": "> 67.5 µM (inactive)"}, {"measurement": "AC50", "setting": "[14]", "result": "11.7 µM (active)"}, {"measurement": "EC50", "setting": "[15]", "result": "2.12 µM (active)"}]}
{"smiles": "CCOc1ccc(/C=C2\\SC(=S)N(CCC(=O)N(CCO)c3ccccc3)C2=O)cc1", "values": [{"measurement": "CC50", "setting": "[16]", "result": "33.5 µM (active)"}]}
{"smiles": "O=c1oc2cc(O)ccc2cc1S(=O)(=O)c1ccccc1", "values": [{"measurement": "AC50", "setting": "[17]", "result": "1.44 µM (active)"}, {"measurement": "EC50", "setting": "[18]", "result": "> 260 µM (inactive)"}]}
{"smiles": "CN1C(=O)C(=Cc2[nH]c3ccccc3c2CCNC(=S)NC2CC2)C(=O)N(C)C1=O", "values": [{"measurement": "EC50", "setting": "[4]", "result": "> 167 µM (inactive)"}]}
{"smiles": "CCCc1ccc(OCc2ccc(C(=O)N3CCSCC3)o2)cc1", "values": [{"measurement": "IC50", "setting": "[19]", "result": "0.904 µM (active)"}]}
{"smiles": "N#CC1=C(N)Oc2c(ccc3ccccc23)C1c1ccsc1", "note": "(stereo not drawn)", "values": [{"measurement": "AC50", "setting": "[20]", "result": "17.7 µM (active)"}, {"measurement": "EC50", "setting": "[21]", "result": "2.63 µM (active)"}, {"measurement": "EC50", "setting": "[22]", "result": "0.254 µM (active)"}, {"measurement": "EC50", "setting": "[23]", "result": "0.182 µM (inconclusive)"}, {"measurement": "EC50", "setting": "[24]", "result": "0.221 µM (active)"}, {"measurement": "EC50", "setting": "[25]", "result": "0.253 µM (active)"}]}
{"smiles": "O=C(CSc1ncccc1C(=O)O)c1ccc2ccccc2c1", "values": [{"measurement": "IC50", "setting": "[19]", "result": "0.391 µM (active)"}]}
{"smiles": "CCOc1ccccc1-c1nc(-c2cc3ccccc3nc2OC)no1", "values": [{"measurement": "IC50", "setting": "[26]", "result": "> 50 µM (not active)"}]}
